Measurements as given in patent US20080050355A1, “PROTECTION OF BIOACTIVE FOOD INGREDIENTS BY MEANS OF ENCAPSULATION” (COMPAGNIE GERVAIS DANONE, priority 2004, published 2008).
Entries after “also recorded” stand apart in the source; their conditions may differ. Like-named read-outs stand apart in the source and are kept apart here. Peptide text beside a SMILES is read from it.

Columns and labels:
[1] = test system: pathogenic strains; conditions: In vitro, cited from earlier work
[2] = Dog, 10 g/300 mL water by stomach tube; cancelled by naloxone; Defilippi 1986; cited from earlier work
[3] = In vivo animal; Migliore-Samour 1988; cited from earlier work
[4] = Hypertensive rats, after ingestion; Nakamura 1995; cited from earlier work
[5] = Human hypertension (36 patients), after 8 weeks' ingestion of 95 mL/d; Hata 1996; cited from earlier work
[6] = Normal rats; Nakamura 1995; cited from earlier work
[7] = test system: platelet aggregation; conditions: In vitro; Jollès 1986; cited from earlier work
[8] = test system: fermented mass; assay: Storage of fermented mass with Lactium encapsulated in palm oil emulsion; assay type: physicochemical
Method: FIG. 6: Illustration of the change in content of encapsulated bioactive ingredient over time (storage at 4° C.).
FIG. 7: Compared peptide profiles (LC-MS/MS chromatograms) of a milk mix containing 1.5 g/L Lactium® added in the form of an emulsion in palm oil according to the present invention, immediately after addition to the fermented mass (1) and after 14 days' storage at 10° C. (2).
The oil was melted at 50° C. to obtain total absence of crystals, and the Lactium® containing the bioactive food ingredient αS1(91-100] was gradually added under magnetic stirring (maintained at 50° C.).
A type of syrup was prepared from water and the premix of palm oil/bioactive food ingredient. The bioactive food ingredient was gradually added to the water (30° C.) under Ultraturax stirring (22000 rpm), the palm content of the solution being arbitrarily fixed at […].
The emulsion obtained was easily pumpable at 30° C.-35° C., but became progressively firmer as soon as the temperature fell to below 25° C.-30° C. (progressive recrystallisation of the palm oil). The use of a food emulsifier (e.g. Lactem® supplied by Danisco) to the proportion of 0.5%/fat led to obtaining a population of fatty globules that was less heterogeneous.

[9] = test system: ferment YC380 (Chr. Hansen); assay: Fermentation of milk mix containing hydrolysate up to pH 4.7, residual peptides by HPLC-MS/MS; assay type: physicochemical
Method: FIG. 3: Compared peptide profiles (LC-MS/MS chromatograms) of a milk “mix” containing 1.5 g/L DMV C12® hydrolysate before (1) and after (2) fermentation up to pH 4.7 by the lacetic ferment Hansen YC380. Almost all the peptides of the hydrolysate, including the bioactive C12 peptide (fragment αS1[23-34] disappeared after metabolisation by the ferment strains.
(§1) Protocol: the medium was prepared by hydrating a skimmed milk powder at 120 g/L, to which 1.5 g/L of Lactium® ingredient is added (corresponding to approximately 30 mg/L αs1 [91-100] bioactive peptide) then pasteurised at 95° C. for 8 minutes.
(§2) The lacetic ferment was added at a percentage of 0.02% and fermentation was conducted at the optimal temperature of the chosen ferment (between 37 and 42° C.) up to a pH of 4.70.
Analysis of the residual peptides, in particular of the bioactive peptide αS1[91-100], was conducted using a HPLC method coupled to a detector of MS/MS type as described below: • the sample was prepared by diluting the fermented medium in a mixture of water, methanol and trifluoroacetic acid (50/50/0.1%) to a ratio of approximately 1 to 6. […] For example the αS1[91-100] peptide was isolated from its mass (double charged ion of mass 634.5 Da) and quantified from the intensity of its characteristic daughter ions after fragmenting (ions with m/z 991.5 Da, 771.5 Da and 658.3 Da). […]

[10] = Storage of fermented then thermised product with peptide added after fermentation; assay type: physicochemical; conditions: thermised at 75° C. for 1 minute, stored at 10° C. until BBD (FIG. 5)
Method: FIG. 5: Curves illustrating changes in the residual content of αS1[91-100] bioactive peptide added after fermentation, in a product fermented and then thermised at 75° C. for 1 minute and stored at 10° C. until the Best Before Date (BBD).
This solution effectively has numerous drawbacks: • thermisation of a fermented milk mass implies the use of stabilisers added before the heat treatment (pectins, starches, carrageenans, etc.) which complicates the method and substantially increases the cost of the formula; • the industrial production line is more complex and requires specific, higher investment; • the product no longer benefits from quality labels related to products containing living ferments (yoghurt type), and thereby loses the benefits associated with the consumption of lacetic ferments; • the organoleptic impact (generally negative) is significant.

[11] = test system: ferment consisting of a mixture of strains 1-2783, 1-2774, 1-2835 and 1-1968; assay: Fermentation of milk mix containing Lactium up to pH 4.70, residual peptides by HPLC-MS/MS; assay type: physicochemical; conditions: 1.5 g/L Lactium® added before fermentation
Method: as §1, §2
Analysis of the residual peptides, in particular of the bioactive peptide αS1[91-100], was conducted using a HPLC method coupled to a detector of MS/MS type as described below: • the sample was prepared by diluting the fermented medium in a mixture of water, methanol and trifluoroacetic acid (50/50/0.1%) to a ratio of approximately 1 to 6. […] The peptides were eluted in conventional manner against an increasing gradient of solvent B (Acetonitrile+0.100% formic acid) in solvent A (Water+0.106% formic acid) for a time of 40 min to 2 hours in relation to desired resolution. • detection was made using a specific detector of MS/MS type, for example of ion trap type such as the Esquire 3000+(Bruker, Daltonique, rue de l'Industrie 67166 Wissembourg Cedex) adjusted either for global analysis of the peptide content (MS-MS mode) or for precise, specific quantification of a peptide from its characteristic fragments. […]

[12] = test system: Pure strains (Lactobacillus); assay: Fermentation of reconstituted milk with 1.5 g/L Lactium by pure strains; assay type: physicochemical; conditions: milk mix containing 1.5 g/L Lactium®, fermentation halted at pH 4.7
Method: (§3) Analysis of the residual peptides, in particular of the bioactive peptide αS1[91-100], was conducted using a HPLC method coupled to a detector of MS/MS type as described below: • the sample was prepared by diluting the fermented medium in a mixture of water, methanol and trifluoroacetic acid (50/50/0.1%) to a ratio of approximately 1 to 6. The supernatant after centrifuging formed the sample representing the peptide content of the fermented medium. • this sample was injected into a HPLC chromatography system of Agilent 1100 type (Agilent Technologies France, 1 rue Galvani 91745 Massy Cedex France) equipped with a column adapted for peptide analysis of Waters Symetry® type (5 μm 2.1×150 mm, WAT056975, Waters, France, 5 Rue Jacques Monod, 78280 Guyancourt) at a temperature of 40° C. and flow rate 0.25 ml/min. The peptides were eluted in conventional manner against an increasing gradient of solvent B (Acetonitrile+0.100% formic acid) in solvent A (Water+0.106% formic acid) for a time of 40 min to 2 hours in relation to desired resolution. • detection was made using a specific detector of MS/MS type, for example of ion trap type such as the Esquire 3000+(Bruker, Daltonique, rue de l'Industrie 67166 Wissembourg Cedex) adjusted either for global analysis of the peptide content (MS-MS mode) or for precise, specific quantification of a peptide from its characteristic fragments. For example the αS1[91-100] peptide was isolated from its mass (double charged ion of mass 634.5 Da) and quantified from the intensity of its characteristic daughter ions after fragmenting (ions with m/z 991.5 Da, 771.5 Da and 658.3 Da). In even more precise manner, an internal standard consisting of the same synthetic peptide deuterated twice (characteristic fragment of 993.5 Da) allowed any matrix-related interferences to be overcome and taken into account.
(§4) To verify that this phenomenon is not particular to the two ferments used in paragraph 1.1) above, the main industrial ferments and different pure strains entering into the composition of these ferments, were tested on the same test basis: milk reconstituted from milk powder, to which Lactium® was added at a dose of 1.5 g/L, was fermented under standard conditions (optimal ferment temperature between 37 and 42° C., halting of fermentation at pH 4.7, two repeats). Analysis of the level of αS1[91-100] bioactive peptide was conducted on the sample before and after fermentation.
(§5) In Table 3 above, which reflects consumption of the bioactive peptide aS1[91-100] by different ferments and industrial strains during fermentation of a milk mix containing 1.5 g/L Lactium®, the pure strains were identified by their numbers and respective date of depositing with the CNCM (Institut Pasteur, Paris France).

[13] = test system: Pure strains (S. thermophilus); assay: as above; assay type: physicochemical; conditions: milk mix containing 1.5 g/L Lactium®, fermentation halted at pH 4.7
Method: as §3, §4, §5

Question: For `CC[C@H](C)[C@H](NC(=O)[C@@H]1CCCN1C(=O)[C@H](Cc1cnc[nH]1)NC(=O)[C@H](CCCCN)NC(=O)[C@@H]1CCCN1C(=O)[C@@H](N)CCCNC(=N)N)C(=O)N[C@@H](CCCCN)C(=O)N[C@@H](Cc1cnc[nH]1)C(=O)N[C@@H](CCC(N)=O)C(=O)NCC(=O)N[C@@H](CC(C)C)C(=O)N1CCC[C@H]1C(=O)N[C@@H](CCC(N)=O)C(=O)N[C@@H](CCC(=O)O)C(=O)N[C@H](C(=O)N[C@@H](CC(C)C)C(=O)N[C@@H](CC(N)=O)C(=O)N[C@@H](CCC(=O)O)C(=O)N[C@@H](CC(N)=O)C(=O)N[C@@H](CC(C)C)C(=O)N[C@@H](CC(C)C)C(=O)N[C@@H](CCCNC(=N)N)C(=O)N[C@@H](Cc1ccccc1)C(=O)O)C(C)C` [isracidin] (H-RPKHPIKHQGLPQEVLNENLLRF-OH), which “growth of pathogenic strains” value ([1]; Lahov 1996) is on record?
Answer: Inhibited growth of pathogenic

Question: Which small intestine motility [2] does the source give for Casein here?
Answer: inhibition of small intestine

Question: With “Casein 63-68: fragment 63-68 of bovine β-casein (PGPIPN; UniProt P02666 78-83, looked up, fragment)” as the molecule, how does the in vivo protection [3] read?
Answer: No in vivo protection

Question: For “Casein 191-193: fragment 191-193 of bovine β-casein (LLY; UniProt P02666 206-208, looked up, fragment)”, which in vivo protection [3] is on record?
Answer: No in vivo protection

Question: For Il-Pro-Pro [Il-Pro-Pro (IPP)], which blood pressure [4] is on record?
Answer: ingestion, reduced blood

Question: And the blood pressure [5]?
Answer: reduced blood pressure

Question: And the blood pressure [6]?
Answer: Normal rats: no effect

Question: Which “growth of pathogenic strains” value ([1]; Tomita 1994-Zucht 1995) does the source give for Lactoferricin here?
Answer: Inhibited growth of pathogenic strains

Question: With “Peptide 106-116 of bovine κ-casein: fragment 106-116 of bovine κ-casein (MAIPPKKNQDK; UniProt P02668 127-137, looked up, fragment)” as the molecule, how does the platelet aggregation [7] read?
Answer: Inhibits

Question: For Val-Pro-Pro [Val-Pro-Pro (VPP)], which blood pressure [4] is on record?
Answer: ingestion, reduced blood

Question: And the blood pressure [5]?
Answer: reduced blood pressure

Question: And the blood pressure [6]?
Answer: Normal rats: no effect

Question: For “αS1[23-34]: bioactive C12 peptide, present in the C12 ingredient by DMV International and in Lactium® (FFVAPFPEVFGK; UniProt P02662 38-49, looked up, fragment)”, which “protection of peptide (LC-MS/MS peptide profile)” value ([8]; 1.5 g/L Lactium® as emulsion in palm oil, after 14 days' storage at 10° C. (FIG. 7)) is on record?
Answer: well protected

Question: And the “peptides after fermentation (LC-MS/MS peptide profile)” value ([9]; milk mix containing 1.5 g/L DMV C12® hydrolysate, fermentation up to pH 4.7 (FIG. 3))?
Answer: disappeared

Question: For “αS1[91-100]: bioactive peptide with relaxing properties contained in the hydrolysate of milk proteins marketed by Ingredia as Lactium® (YLGYLEQLLR; UniProt P02662 106-115, looked up, fragment)”, which “content of encapsulated bioactive ingredient over time” value ([8]; encapsulated in palm oil emulsion, added to fermented white mass, storage at 4° C. (FIG. 6)) is on record?
Answer: stability

Question: What about the “bioactive peptide consumed after fermentation” value ([9]; 1.5 g/L Lactium® added before fermentation, up to pH 4.70) of the same molecule?
Answer: more than 95%

Question: What about the “stability of the peptide in heat-treated fermented product” value [10] of the same molecule?
Answer: possible to ensure the stability; also recorded: possible to preserve

Question: What about the “bioactive peptide consumed after fermentation” value [11] of the same molecule?
Answer: more than 95%

Question: What about the “% αS1[91-100] peptide remaining after fermentation” value (“% αS1[91-100] peptide remaining” below) ([12]; strain 1-1519 (30 Dec. 1994)) of the same molecule?
Answer: 0.1%

Question: And the “% αS1[91-100] peptide remaining” value ([12]; strain 1-1632 (24 Oct. 1995))?
Answer: 0.2%

Question: And the “% αS1[91-100] peptide remaining” value ([12]; strain 1-1968 (14 Jan. 1998))?
Answer: 1.6%

Question: And the “% αS1[91-100] peptide remaining” value ([12]; strain 1-2809 (19 Feb. 2002))?
Answer: 0.4%

Question: What about the “% αS1[91-100] peptide remaining” value ([13]; strain 1-1477 (22 Sep. 1994)) of the same molecule?
Answer: 0.3%

Question: And the “% αS1[91-100] peptide remaining” value ([13]; strain 1-1630 (24 Oct. 1995))?
Answer: 0.3%
